# From a melting point compilation (Tetko et al.; mined from patent text by program, amines drawn as free bases though some values may be those of a salt)
row,melting point,SMILES
1,77 to 78.5 °C,COC(=O)c1ccccc1Sc1cccc(O)c1
2,68 to 70 °C,CCN(c1nc(C)cc(C(O)c2cnccc2-c2ccccc2OC)n1)c1ccc(C(C)C)cc1Br (stereo not given)
3,140 to 141 °C,CCc1nc2c(Cl)nc(C)cc2n1Cc1ccccc1
4,131 to 132 °C,CCOC(=O)C(=NO)c1ccc(Oc2ccccc2)cc1
5,175 to 176 °C,CN(C)CC(=O)Nc1c(C(=O)c2ccccc2)[nH]c2cc(Cl)ccc12
6,73.5 to 75 °C,CCc1cn(C(C)C(=O)N(C)C)nc1-c1ccccc1 (stereo not given)
7,109 to 110 °C,O[C@@H](CNCCOc1ccc2oc(-c3ccon3)cc2c1)COc1ccccc1F
8,165 to 167 °C,CCCc1c(OCCCCCc2ccc3cc(O)c(O)cc3c2)ccc(C(=O)O)c1O
9,150 to 152 °C,COc1ccc(-c2csc(NC(=O)C(=O)OCC(C)c3ccccc3)n2)cc1 (stereo not given)
10,231 °C,CN(C)C(=O)n1nc(-c2ccccc2)c(-c2ccccc2)c(C#N)c1=O
11,139 to 142 °C,COc1ccc(C=O)cc1NC(=O)OCC1c2ccccc2-c2ccccc21
12,115 to 130 °C,CC(C)(C)OC(=O)Nc1ccc(-c2ccccc2F)cc1NC(=O)CC(=O)c1csc(-n2ccnc2)n1
13,198 to 201 °C,COc1ccc(C2=CNC(=O)NC2)cc1OC1Cc2ccccc2C1
14,175 to 177 °C,CCCc1c(OCCCCCOc2ccc(C(=O)c3ccc(C(=O)O)cc3)cc2CCC(=O)O)ccc2c1OCCC2=O
15,53 to 54 °C,Cc1cccc2nc(-c3ccccc3)sc12
16,273 to 275 °C,NC1=NN(c2nc3ccccc3s2)C(c2ccc(Cl)cc2)C1 (stereo not given)
17,192 to 195 °C,O=C(Cn1c(-c2ccc(Br)cc2)nc2cccnc21)Nc1ccccn1
18,136 to 137 °C,Brc1ccc2cc(N(c3ccccc3)c3ccccc3)ccc2c1
19,196 °C,CCOC(=O)c1c(N2CCN(C=O)CC2)c2cc(C)ccc2n(Cc2ccccc2)c1=O
20,204 to 206 °C,COC(=O)c1ccc(-c2ccccc2)cc1S(=O)(=O)NC(=O)Nc1nc(OC)cc(OC)n1
21,122 to 124 °C,CS(=O)(=O)c1ccc(-c2cc(Br)sc2-c2ccc(F)cc2)cc1
22,272 to 275 °C,CC(=O)OC1CCc2c(C3=C(c4cn(C)c5ccccc45)C(=O)OC3=O)c3ccccc3n2C1 (stereo not given)
23,303 to 304 °C,O=C(O)c1ccc(-c2cccc([N+](=O)[O-])c2)[nH]c1=O

row,melting point,SMILES
1,92 °C,CC(C)(C)c1cccc(S(=O)(=O)n2c(Cc3ccc(-c4n[nH]c(=O)o4)cc3)cc3cc(C(F)(F)F)ccc32)c1
2,107 to 108 °C,O=C(N[C@H]1CCN(CCc2ccc(F)cc2)C1)C(c1ccccc1F)c1ccccc1F
3,174 to 175 °C,C=CCn1c(=O)c(C(=O)OCC)c(O)c2cnc(-c3ccccc3)nc21
4,148 °C,Cc1cccc(NC(=O)NCC(=O)N(CC(=O)OC(C)(C)C)c2ccccc2F)c1
5,123 to 124 °C,COCCOc1ccc(CCCOC(=O)NS(=O)(=O)NCCC(C)C)c(Oc2ncc(C(F)(F)F)cc2Cl)c1
6,197 to 200 °C,CC(=O)Nc1ccccc1NS(=O)(=O)c1cc(C(=O)O)cc(NCc2ccccc2)c1Oc1ccccc1
7,124 to 125 °C,CC(C)(O)c1cccc(OCc2nc3cc(F)ccc3s2)c1
8,189 °C,O=C(Nc1ccc(S(=O)(=O)N2CCC(CNC[C@H](O)COc3ccc(O)cc3)CC2)cc1)Nc1ccccn1
9,79 to 81 °C,CCCCOCCOc1ccc(-c2ccc(N3CC=CC3)c(C=O)c2)cc1
10,155 °C,NC(=O)N(O)Cc1ccc(Oc2ccc(-n3ccnc3)cc2)o1
11,205 to 206 °C,CC1(C)C(=O)Nc2cc(C(=O)Nc3ccccc3)ccc21
12,123 to 125 °C,O=C(O)COCCCCS(=O)(=O)c1cnc(-c2ccccc2)c(-c2ccccc2)n1
13,111 to 115 °C,N#Cc1cc([N+](=O)[O-])ccc1-c1ccccc1
14,201 °C,CC(CO)(CO)NS(=O)(=O)c1cc(NC(=O)c2cnn3c(C(F)(F)F)cc(-c4ccc(C(F)(F)F)cc4)nc23)c(Cl)s1
15,165 to 167 °C,O=C(O)C(O)=CC(=O)c1c(Cc2ccccc2)[nH]c2ccccc12
16,109 to 110 °C,CCOC(=O)COc1ccc(C[C@H](C)NS(=O)(=O)c2ccccc2)cc1
17,45 to 46 °C,CCOC(=O)C(C)(C)Oc1ccc(CNc2ccccc2)cc1
18,63 to 65 °C,CCCc1cc(COc2cc(CC)nc(C)c2OC)ccc1-c1ccccc1S(=O)(=O)Nc1noc(C)c1C
19,195 to 196 °C,CC(=O)Nc1c(C(=O)c2cccc(C)n2)[nH]c2cc(Cl)ccc12
20,97 to 100 °C,CC(C)[C@H](NC(=O)N(C)Cc1nc2ccccc2[nH]1)C(=O)N[C@@H](Cc1ccccc1)C[C@H](O)[C@H](Cc1ccccc1)NC(=O)OCc1cccnc1
21,152 to 153 °C,O=[N+]([O-])c1ccc(F)c(-c2ccc3ncccc3c2)c1F
22,176 to 179 °C,COc1ccc(/C=C/CNc2cccc(-c3ccnc4c(C(=O)c5cccs5)cnn34)c2)cc1

# The remaining lines, values behind:
row,SMILES,melting point
1,CSc1nnc2n1C=Cc1cc(C)ccc1C2,161 to 162 °C
2,CC(C)Nc1cccnc1N1CCN(C(=O)c2ccc(C(=O)N(CCO)CCO)cn2)CC1,130 to 132 °C
3,CCc1cn(C2CC(O)C(CNC(=O)C(C)Oc3ccc(Cl)cc3Cl)O2)c(=O)[nH]c1=O (mixture of isomers),240 to 243 °C
4,CC1(c2ccc(-c3ccc(Cl)cc3)cc2)CC(=O)NN1 (stereo not given),214 to 215 °C
5,Cc1cc(NC(=O)c2cc(Cl)cc(C)n2)ccn1,162 °C
6,Fc1ccc(-c2nc(SC(F)(F)C(F)F)[nH]c2-c2ccncc2)cc1,242 to 248 °C
7,COc1ccc2nc3c(cc2c1)c(N)nn3C,185 to 186 °C
8,C#Cc1ccc2ccc(OC(CC)C(=O)NC(C)(C)CO)cc2c1 (stereo not given),81 to 82 °C
9,COc1ccc(CCN(C)C)c2[nH]c(C(F)(F)F)nc12,182 to 185 °C
10,N=C(NO)c1cnc(Cl)c(Cl)c1,182 to 184 °C
11,CC1(O)C(CO)OC(n2cnc3c(N)ncnc32)C1(C)O (stereo not given),180 °C
12,CNc1ccc2c(c1)C(c1ccccc1F)=NCc1cnc(C)n1-2,255 to 259 °C
13,C=CCOc1ccc(C(=O)CC(C#N)(CCC)c2ccc(OC)cc2OC)cc1 (stereo not given),86.1 to 87.1 °C
14,O=[N+]([O-])c1ccc(O)c(CO)c1,112 to 114 °C
15,CC(C)(C)OC(=O)NCC1=C(CC(=O)O)CCCC1,118 to 119 °C
16,CCOC(=O)C(=O)Nc1ccc(C#N)cc1[N+](=O)[O-],152 °C
17,C=CCN1CC2OC(c3ccccc3)(C1)c1ccccc12 (stereo not given),127 to 128 °C
18,C#CCNC(=O)c1nn(-c2c(Cl)cc(C(F)(F)F)cc2Cl)c(N)c1S(=O)C(F)(F)F (stereo not given),207 °C
19,C#CCN(Cc1cc2c(=O)n(C)c(CN3CCOCC3)nc2cc1Cl)c1ccc(C(=O)OC(C)(C)C)cc1,140 to 143 °C
20,COC(=O)C(C)(N)Cc1c[nH]c2ccc(OC(F)F)cc12 (racemic),140 to 142 °C
21,COC(=O)C=C1CC(=O)N(c2ccccc2)c2cc(Cl)ccc2N1,199 to 201 °C
22,CC1Oc2cc(CN3CCN(c4ccncc4)CC3)ccc2NC1=O (stereo not given),130 to 134 °C
23,Cc1cc(O)c(SC23CC4CC(CC(C4)C2)C3)c(=O)o1,176 °C
24,COC(=O)C1=C(C)NC(=O)N(C)C1c1cccc(N)c1 (stereo not given),205 to 209 °C
25,Nc1nc(Cl)cc(NCC2(CO)CCC2)n1,192 to 194 °C
26,CC(C)(C)Nc1c(NCc2cc(Cl)ccc2Cl)c(=O)c1=O,236 °C
27,Nc1c(NC(=O)CC23CCCN2CCC3)cnc2ccccc12,205 to 209 °C
28,CC(C)Cn1cnc2c(N)nc3ccc(CCc4ccncc4)cc3c21,221 to 224 °C

row,SMILES,melting point
1,CCNC(=O)c1c(Cl)cccc1N(C)C(C)(C)C,106 to 108 °C
2,OCc1cccc(-c2cccc(-c3cn([C@H]4CN5CCC4CC5)nn3)c2)c1,201 °C
3,COc1ccc(C=Cc2cccc(C#N)n2)cc1,121 to 122 °C
4,CCCCn1c(NCCC)nc2ccc(Br)cc2c1=O,71 to 73 °C
5,CCCCCCCCCCCCCCCCCCNCP(=O)(O)O,108 to 112 °C
6,O=C1Nc2ccc(-c3ccc(Cl)cc3)cc2C1=O,246 to 252 °C
7,CCCCCCCCCCCCCCCCCCNC(=O)C(=O)Nc1ccc(Sc2ccc(O)cc2)cc1,163 °C
8,CNC(=O)c1[nH]c(C)c2c1CN=C(c1ccccc1F)c1cc(Cl)ccc1-2,252 to 255 °C
9,CCOP(=O)(O)C(=Nc1ccc(-c2c[nH]cn2)cc1)NC(C)C,235 °C
10,COc1cc2c(=O)oc(=O)[nH]c2c(OC)c1OC,247 °C
11,C#CCn1cc(F)cnc1=O,107 to 108 °C
12,CCS(=O)(=O)c1ccc(F)c([N+](=O)[O-])c1,128 to 131 °C
13,O=C1CC2(CN1)CC(O)c1cc(Cl)ccc12 (stereo not given),172 to 174 °C
14,CCOC(=O)c1oc2ccc([N+](=O)[O-])cc2c1OC(C)C,122 °C
15,CC12CCC(O)CC1=CCC1C2CCC2(C)C(=C(F)CO)CCC12 (stereo not given),198 to 203 °C
16,CCOC(=O)c1nc[nH]c1C(=O)OCC,175 to 177 °C
17,CC1(C(=O)Nc2ccc(Oc3ccc(Cl)cc3)c(C(F)(F)F)c2)CC1,115 to 117 °C
18,Cc1ccc2cc(NS(C)(=O)=O)ccc2n1,151 to 153 °C
19,CC(=O)C1=CC(C)(C)C=CC1,27 to 30 °C
20,COC(=O)C1=C(C)N=C(OC)N(C(=O)NCCCC(=O)OC(C)(C)C)C1c1ccc(F)cc1 (stereo not given),135 to 138 °C
21,CCCCN(CCCC)c1ccc(C=Cc2cc(C)c(C=CC3=C(C#N)C(=C(C#N)C#N)OC3(c3ccccc3)C(F)(F)F)cc2C)c(OC)c1 (stereo not given),177 to 179 °C
22,CCCc1c(C(=O)C(C)C)c2ccc(CC(N)=O)cc2n1Cc1cc2c(cc1Cl)OCO2,136 to 138 °C
23,O=CC=CC=CC=CC=Cc1ccsc1,156 to 158 °C
24,Cc1c(C(=O)O)cnn1-c1ccc(OC(F)(F)F)cc1,176 to 178 °C
25,Cc1nc2c(Cl)cc3nc(O)c(O)nc3c2nc1C,> 300 °C
26,CC(=O)NC12CCCC(C1)C1CCC2C1 (stereo not given),138 to 139 °C
27,COc1cc(OC)nc(Cc2ccccc2N)n1,82 to 84 °C
